# In patent US20120232043A1, “LUBIPROSTONE FOR OBSTETRICAL OR GYNECOLOGICAL APPLICATIONS” (CEMAG, priority 2009, published 2012):
# Tested on: women requesting early pregnancy termination (<64 days of amenorrhea)
# Test: Early pregnancy termination in women: oral mifepristone followed by oral lubiprostone
# Assay type: in vivo
# Settings: twelve women, 200 mg mifepristone once orally, followed 24 hours later by oral lubiprostone 8 μg twice daily for 2 consecutive days
# Procedure: Twelve women requesting early pregnancy termination (<64 days of amenorrhea) have received 200 mg mifepristone once, orally followed 24 hours later by the oral administration of lubiprostone (8 μg twice daily for 2 consecutive days). Efficacy rate (i.e. complete pregnancy termination, without need for surgical procedure) was […]. In one person, ovular fragments had to be removed at the uterine os with a forceps. Median bleeding time was 8 days. There was no specific adverse event except mild diarrhea in 3 subjects.
smiles,measurement,setting,value
"CCCCC(F)(F)[C@@]1(O)CC[C@H]2[C@@H](CC(=O)[C@@H]2CCCCCCC(=O)O)O1 [lubiprostone, 7-[(2R,4aR,5R,7aR)-2-(1,1-difluoropentyl)-2-hydroxy-6-oxo-3,4,4a,5,7,7a-hexahydrocyclopenta[b]pyran-5-yl]heptanoic acid]","Efficacy rate (i.e. complete pregnancy termination, without need for surgical procedure)",<64 days of amenorrhea,97%
same,Adverse event: mild diarrhea (no other specific adverse event),,3 subjects
same,Median bleeding time,,8 days
same,Ovular fragments had to be removed at the uterine os with a forceps,,one
